# Measurements as given in EP1799188B1, “USE OF PEPTIDES AS AN ANTIOXIDANT AGENT FOR THE PREPARATION OF A COSMETIC AND/OR PHARMACEUTICAL COMPOSITION” (Ashland Specialties France, priority 2004, dated 2015).
# Tested on: fibroblastes primaires
# Experiment: Neutral red uptake cytotoxicity / cell viability test
# Type: cell-based
# Settings: actif 1 %
# Description: Des fibroblastes primaires sont ensemencés sur une plaque 96 puits (à 20000 cellules par puits environ). Une fois que les cellules ont atteint 70 % de confluence, le dipeptide dimérisé Cys-Gly selon l'invention, dilué à 1 %, est appliqué sur la plaque durant 24 heures. Une moitié de la plaque est alors irradiée par des UVB à 100 mJ/cm^2 et l'autre moitié non irradiée. Les cellules sont ensuite remises en culture pendant 24 h en présence de l'actif, puis incubées en présence de rouge neutre.
# Le rouge neutre (un colorant « supravital ») se fixe spécifiquement aux lysosomes des cellules vivantes, la coloration sera ainsi proportionnelle à la viabilité des cellules. Après l'ajout d'une solution de révélation, solubilisant le rouge neutre, l'absorbance est mesurée à 540 nm.
# Les résultats obtenus, représentés dans le tableau ci-dessous, représentent le pourcentage de viabilité cellulaire en fonction des différentes conditions étudiées, par rapport à la condition contrôle.
smiles,measurement,value
N[C@@H](CSSC[C@H](N)C(=O)NCC(=O)O)C(=O)NCC(=O)O [actif],cytotoxicité (nocivité pour les cellules),n'est pas nocif pour les cellules
